# According to ChEMBL document CHEMBL2177072, “Design and synthesis of β-site amyloid precursor protein cleaving enzyme (BACE1) inhibitors with in vivo brain reduction of β-amyloid peptides” (J Med Chem, 2012):
# The source made the active and inactive calls. No cut-off for these calls is given here.
# How the values were obtained:
# [1] = physchem
# Description: Lipophilicity, log D of the compound by RP-HPLC analysis
# [2] = physchem; remark: listed apart in the source
# [3] = in vitro; settings: rat, hepatocytes
# [4] = target: T1, Beta-secretase 1 (Homo sapiens, UniProt P56817); assay type: cell-based, SH-SY5Y
# [5] = target: T1, Beta-secretase 1
# [6] = target: Voltage-gated inwardly rectifying potassium channel KCNH2 (Homo sapiens, UniProt Q12809)
# Description: Inhibition of human ERG expressed in CHO cells by IonWorks assay
# [7] = in vitro; settings: human, Caco-2
# Description: Efflux ratio of apparent permeability from basal to apical to apical to basal side of human Caco2 cells at 10 uM after 60 mins by LC/MS analysis
# [8] = in vitro; settings: human, Caco-2; remark: listed apart in the source
# Description: Apparent permeability from apical to basal side of human Caco2 cells at 10 uM after 60 mins by LC/MS analysis
# [9] = target: T2, Beta-secretase 2 (Homo sapiens, UniProt Q9Y5Z0)
# T2 sequence (Q9Y5Z0 whole entry): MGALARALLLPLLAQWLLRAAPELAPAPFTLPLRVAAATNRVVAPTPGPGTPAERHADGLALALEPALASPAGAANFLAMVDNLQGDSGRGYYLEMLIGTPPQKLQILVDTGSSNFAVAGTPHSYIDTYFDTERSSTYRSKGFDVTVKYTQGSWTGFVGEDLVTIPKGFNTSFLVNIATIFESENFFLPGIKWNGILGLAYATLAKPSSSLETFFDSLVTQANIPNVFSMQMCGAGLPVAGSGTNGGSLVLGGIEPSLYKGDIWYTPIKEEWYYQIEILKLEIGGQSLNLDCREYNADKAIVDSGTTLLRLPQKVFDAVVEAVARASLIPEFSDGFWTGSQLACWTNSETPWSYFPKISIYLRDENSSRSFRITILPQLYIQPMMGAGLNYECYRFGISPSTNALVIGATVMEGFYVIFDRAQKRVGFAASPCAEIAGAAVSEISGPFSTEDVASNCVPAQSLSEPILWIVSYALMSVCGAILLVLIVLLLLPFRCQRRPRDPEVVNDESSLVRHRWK
# [10] = target: Beta-secretase 1 (Mus musculus, UniProt P56818)
# Description: Inhibition of BACE1-mediated amyloid beta 40 release in C57/BL6 mouse primary cortical neurons after overnight incubation by ELISA
# [11] = Ratio of free drug concentration in brain to free drug concentration in plasma in C57BL/6 mouse at 80 umol/kg, po at […]; assay type: ADME, organism-based
# [12] = test system: Brain; test: Free drug concentration in C57BL/6 mouse brain at 80 umol/kg, po at […]; assay type: ADME, organism-based; settings: in vivo
# [13] = test system: Plasma; test: Free drug concentration in C57BL/6 mouse plasma at 80 umol/kg, po at […]; assay type: ADME, organism-based; settings: in vivo
# [14] = test system: Mus musculus; test: Antialzheimer activity in C57BL/6 mouse assessed as reduction in sAPPbeta level in brain at 80 umol/kg, po; assay type: functional, organism-based
# [15] = test system: Mus musculus; test: Antialzheimer activity in C57BL/6 mouse assessed as reduction in amyloid beta 42 level in brain at 80 umol/kg, po; assay type: functional, organism-based
# [16] = Fraction unbound in C57BL/6 mouse brain at 80 umol/kg, po; assay type: ADME, organism-based
# [17] = Fraction unbound in C57BL/6 mouse plasma at 80 umol/kg, po; assay type: ADME, organism-based
# [18] = test system: Mus musculus; test: Antialzheimer activity in C57BL/6 mouse assessed as reduction in amyloid beta 40 level in brain at 80 umol/kg, po at […] by ELISA relative to control; assay type: functional; parameters: scale not given: the % may be the effect or the level left
# [19] = in vivo; settings: mouse, po
# Description: Half life in po dosed mouse
# [20] = in vivo; settings: mouse, po; remark: listed apart in the source
# Description: Oral bioavailability in mouse
# [21] = test system: Brain; test: Free drug concentration in C57BL/6 mouse brain at 300 umol/kg, po at […]; assay type: ADME, organism-based; settings: in vivo
# [22] = test system: Plasma; test: Free drug concentration in C57BL/6 mouse plasma at 300 umol/kg, po at […]; assay type: ADME, organism-based; settings: in vivo
# [23] = species: Mus musculus; test: Antialzheimer activity in C57BL/6 mouse assessed as unbound brain concentration required for 20% reduction in amyloid beta 40 level in brain at 1.5 by ELISA; assay type: functional
# [24] = test system: Mus musculus; test: Antialzheimer activity in C57BL/6 mouse assessed as reduction in sAPPbeta level in brain at 300 umol/kg, po; assay type: functional, organism-based
# [25] = test system: Mus musculus; test: Antialzheimer activity in C57BL/6 mouse assessed as reduction in amyloid beta 42 level in brain at 300 umol/kg, po; assay type: functional, organism-based
# [26] = Fraction unbound in C57BL/6 mouse brain at 300 umol/kg, po; assay type: ADME, organism-based
# [27] = Fraction unbound in C57BL/6 mouse plasma at 300 umol/kg, po; assay type: ADME, organism-based
# [28] = test system: Mus musculus; test: Antialzheimer activity in C57BL/6 mouse assessed as reduction in amyloid beta 40 level in brain at 300 umol/kg, po at […] by ELISA relative to control; assay type: functional; parameters: scale not given: the % may be the effect or the level left
# T1 sequence (P56817 whole entry): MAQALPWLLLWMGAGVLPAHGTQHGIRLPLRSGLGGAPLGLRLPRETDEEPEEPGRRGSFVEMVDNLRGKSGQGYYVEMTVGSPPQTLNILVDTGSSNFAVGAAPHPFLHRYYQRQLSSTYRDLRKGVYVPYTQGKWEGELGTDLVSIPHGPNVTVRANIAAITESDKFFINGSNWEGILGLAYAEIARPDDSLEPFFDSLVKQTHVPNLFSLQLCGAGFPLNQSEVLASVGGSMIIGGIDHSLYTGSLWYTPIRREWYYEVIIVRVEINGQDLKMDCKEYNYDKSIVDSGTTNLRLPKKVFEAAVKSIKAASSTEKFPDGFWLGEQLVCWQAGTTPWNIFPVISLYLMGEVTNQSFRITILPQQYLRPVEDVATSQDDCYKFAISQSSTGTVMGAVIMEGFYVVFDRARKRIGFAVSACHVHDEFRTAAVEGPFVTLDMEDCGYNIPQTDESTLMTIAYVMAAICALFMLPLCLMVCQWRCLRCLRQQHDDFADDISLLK
# Chain of Beta-secretase 1 (Mus musculus, UniProt P56818) (P56818 whole entry): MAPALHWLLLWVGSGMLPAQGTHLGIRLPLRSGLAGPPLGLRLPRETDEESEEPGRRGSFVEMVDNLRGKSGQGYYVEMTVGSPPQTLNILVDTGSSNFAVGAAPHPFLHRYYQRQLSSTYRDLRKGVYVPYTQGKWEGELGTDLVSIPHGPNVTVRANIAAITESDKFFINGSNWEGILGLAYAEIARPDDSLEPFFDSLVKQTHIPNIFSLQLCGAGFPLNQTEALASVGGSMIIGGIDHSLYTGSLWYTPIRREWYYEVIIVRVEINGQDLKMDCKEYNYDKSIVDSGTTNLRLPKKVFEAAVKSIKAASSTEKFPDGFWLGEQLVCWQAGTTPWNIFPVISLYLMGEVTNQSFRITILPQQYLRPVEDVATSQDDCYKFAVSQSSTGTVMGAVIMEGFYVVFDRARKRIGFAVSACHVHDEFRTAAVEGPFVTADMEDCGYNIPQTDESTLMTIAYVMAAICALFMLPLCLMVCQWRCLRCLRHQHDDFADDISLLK
# Chain of Voltage-gated inwardly rectifying potassium channel KCNH2 (Q12809 whole entry): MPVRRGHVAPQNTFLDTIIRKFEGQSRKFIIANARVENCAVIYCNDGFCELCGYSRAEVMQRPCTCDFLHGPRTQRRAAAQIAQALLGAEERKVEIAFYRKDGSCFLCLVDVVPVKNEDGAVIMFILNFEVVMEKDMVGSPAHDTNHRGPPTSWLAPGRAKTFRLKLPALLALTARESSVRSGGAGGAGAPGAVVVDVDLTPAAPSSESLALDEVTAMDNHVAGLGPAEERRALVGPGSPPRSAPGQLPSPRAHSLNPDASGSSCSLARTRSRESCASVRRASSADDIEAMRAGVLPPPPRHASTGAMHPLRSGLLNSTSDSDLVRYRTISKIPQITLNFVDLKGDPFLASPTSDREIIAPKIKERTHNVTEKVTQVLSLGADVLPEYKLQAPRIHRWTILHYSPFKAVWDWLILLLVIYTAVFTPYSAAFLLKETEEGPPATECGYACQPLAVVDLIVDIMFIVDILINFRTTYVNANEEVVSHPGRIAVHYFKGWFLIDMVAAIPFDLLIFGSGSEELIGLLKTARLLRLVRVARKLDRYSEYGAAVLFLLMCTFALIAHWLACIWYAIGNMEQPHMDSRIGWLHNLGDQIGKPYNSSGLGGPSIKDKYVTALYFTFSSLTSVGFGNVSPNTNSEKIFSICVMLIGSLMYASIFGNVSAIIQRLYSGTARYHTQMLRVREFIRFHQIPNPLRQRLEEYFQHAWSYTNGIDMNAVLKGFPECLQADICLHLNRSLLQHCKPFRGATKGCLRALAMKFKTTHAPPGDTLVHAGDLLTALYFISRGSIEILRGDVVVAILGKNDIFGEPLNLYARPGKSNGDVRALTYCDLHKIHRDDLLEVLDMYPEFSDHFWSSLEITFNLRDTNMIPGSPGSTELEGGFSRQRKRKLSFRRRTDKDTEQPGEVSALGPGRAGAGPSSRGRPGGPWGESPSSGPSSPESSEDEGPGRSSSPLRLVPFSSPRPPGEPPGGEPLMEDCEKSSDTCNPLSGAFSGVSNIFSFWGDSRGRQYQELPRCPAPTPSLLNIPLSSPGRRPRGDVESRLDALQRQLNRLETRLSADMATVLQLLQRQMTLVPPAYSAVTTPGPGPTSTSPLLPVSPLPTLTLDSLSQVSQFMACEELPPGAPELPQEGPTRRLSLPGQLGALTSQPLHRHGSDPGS
smiles,measurement,setting,value
NC1=NC(c2cccc(-c3cncnc3)c2)(c2ccnc(C(F)F)c2)c2cccc(F)c21 (racemic),logD,[1],2
same,pKa,[2],6.8
same,hepatocyte CLint,[3],27.5 µL/min/1e6 cells
N#Cc1cncc(-c2cccc(C3(c4ccnc(C(F)(F)F)c4)N=C(N)c4c(F)cccc43)c2)c1 (stereo not given),IC50,[4],0.0299 µM
same,IC50,[5],0.253 µM
same,IC50,[6],1.7 µM
same,logD,[1],3.7
same,hepatocyte CLint,[3],5.2 µL/min/1e6 cells
same,"efflux ratio at 1 h, 10 µM",[7],0.8
same,"Papp A→B at 1 h, 10 µM",[8],16 ×10⁻⁶ cm/s
Cc1cc(C2(c3cccc(-c4cncnc4)c3)N=C(N)c3c(F)cccc32)cc(C)n1 (stereo not given),IC50,[4],0.0107 µM
same,IC50,[5],1.38 µM
NC1=NC(c2ccnc(C(F)(F)F)c2)(c2ccc(F)c(-c3cncnc3)c2)c2cccc(F)c21 (racemic),logD,[1],3
same,pKa,[2],6.4
same,hepatocyte CLint,[3],6.9 µL/min/1e6 cells
same,"Papp A→B at 1 h, 10 µM",[8],25 ×10⁻⁶ cm/s
CCn1cc(C2(c3cccc(-c4cncnc4)c3)N=C(N)c3c(F)cccc32)cc(C)c1=O (stereo not given),IC50,[4],0.00909 µM
same,IC50,[5],0.0155 µM
NC1=NC(c2ccncc2)(c2cccc(-c3cncnc3)c2)c2ccccc21 (stereo not given),IC50,[4],0.0903 µM
same,IC50,[6],16 µM
same,logD,[1],0.7
same,pKa,[2],8.4
same,hepatocyte CLint,[3],11.7 µL/min/1e6 cells
same,"efflux ratio at 1 h, 10 µM",[7],12
same,"Papp A→B at 1 h, 10 µM",[8],3.4 ×10⁻⁶ cm/s
COc1ccc(C2(c3cccc(-c4cncnc4)c3)N=C(N)c3c(F)cccc32)cc1 (stereo not given),IC50,[4],0.0125 µM
same,IC50,[5],0.135 µM
CC#Cc1cncc(-c2cccc(C3(c4ccnc(C(F)F)c4)N=C(N)c4c(F)cccc43)c2)c1 (stereo not given),IC50,[4],0.00297 µM
same,IC50,[5],0.00649 µM
NC1=N[C@@](c2cccc(-c3cncnc3)c2)(c2ccnc(C(F)F)c2)c2cc(F)cc(F)c21,IC50,[4],0.00864 µM
same,IC50,[5],0.0362 µM
same,Ki,[9],0.77 µM
same,IC50,[10],0.053 µM
NC1=NC(c2ccncc2)(c2cccc(-c3cncnc3)c2)c2cccc(F)c21 (racemic),IC50,[4],0.0114 µM
same,IC50,[5],0.158 µM
CCn1cc(C2(c3cccc(-c4cncc(F)c4)c3)N=C(N)c3c(F)cccc32)cc(C)c1=O (stereo not given),IC50,[4],0.00398 µM
NC1=NC(c2ccncc2)(c2cccc(-c3cncc(F)c3)c2)c2cccc(F)c21 (stereo not given),IC50,[4],0.0256 µM
same,IC50,[5],0.137 µM
COc1c(C)cc(C2(c3cccc(-c4cncnc4)c3)N=C(N)c3c(F)cccc32)cc1C#N (stereo not given),IC50,[4],0.0034 µM
same,logD,[1],3.1
same,hepatocyte CLint,[3],30.9 µL/min/1e6 cells
same,"Papp A→B at 1 h, 10 µM",[8],23 ×10⁻⁶ cm/s
NC1=N[C@@](c2cccc(-c3cncnc3)c2)(c2ccnc(C(F)F)c2)c2cccc(F)c21 [AZD-3839],"K(p,uu,brain)",[11],0.7
same,Drug uptake(free),[12],119 nM
same,Cp(f),[13],170 nM
same,Activity,[14],Active
same,Activity,[15],Active
same,fraction unbound,[16],0.079
same,fraction unbound,[17],0.027
same,Activity,[18],31%
same,Ki,[9],0.37 µM
same,IC50,[10],0.051 µM
same,half-life,[19],1.5 h
same,bioavailability,[20],73%
same,logD,[1],2
same,pKa,[2],7.1
same,hepatocyte CLint,[3],20.9 µL/min/1e6 cells
NC1=N[C@](c2ccncc2)(c2cccc(-c3cncnc3)c2)c2cccc(F)c21,IC50,[4],0.00825 µM
same,IC50,[5],0.124 µM
same,Ki,[9],0.79 µM
same,IC50,[10],0.068 µM
Cc1cc(C2(c3cccc(-c4cncnc4)c3)N=C(N)c3c(F)cccc32)cn(C)c1=O (stereo not given),IC50,[4],0.0114 µM
same,IC50,[5],0.0608 µM
same,Ki,[9],0.74 µM
same,IC50,[10],0.03 µM
CCn1cc([C@]2(c3cccc(C#CC4CC4)c3)N=C(N)c3c(F)cccc32)cc(C)c1=O,IC50,[4],0.00076 µM
same,IC50,[5],0.00608 µM
same,Ki,[9],0.078 µM
same,IC50,[10],0.0034 µM
CC#Cc1cncc(-c2cccc([C@@]3(c4cc(C)c(=O)n(CC)c4)N=C(N)c4c(F)cc(F)cc43)c2)c1,IC50,[4],0.00038 µM
same,IC50,[5],0.00259 µM
CCn1cc([C@]2(c3cccc(NC(=O)c4ccc(Cl)cn4)c3)N=C(N)c3c(F)cccc32)cc(C)c1=O,IC50,[4],0.00015 µM
same,IC50,[5],0.00249 µM
NC1=N[C@](c2ccnc(C(F)(F)F)c2)(c2ccc(F)c(-c3cncnc3)c2)c2cccc(F)c21,Drug uptake(free),[21],406 nM
same,Cp(f),[22],795 nM
same,Activity,[23],114 nM
same,Activity,[24],Active
same,Activity,[25],Active
same,fraction unbound,[26],0.025
same,fraction unbound,[27],0.044
same,Activity,[28],50%
same,IC50,[10],0.204 µM
same,logD,[1],3
same,hepatocyte CLint,[3],10 µL/min/1e6 cells
same,"Papp A→B at 1 h, 10 µM",[8],30 ×10⁻⁶ cm/s
NC1=NC(c2cccc(-c3cncnc3)c2)(c2ccnc(C(F)(F)F)c2)c2cccc(F)c21 (stereo not given),IC50,[4],0.0431 µM
same,IC50,[10],0.436 µM
COc1cc(C2(c3cccc(-c4cncnc4)c3)N=C(N)c3c(F)cccc32)ccn1 (stereo not given),IC50,[4],0.0215 µM
NC1=NC(c2cccc(-c3cncnc3)c2)(c2ccnc(C(F)(F)F)c2)c2ccccc21 (stereo not given),IC50,[4],0.0021 µM
same,IC50,[5],0.134 µM
COc1c(C)cc(C2(c3cccc(-c4cncnc4)c3)N=C(N)c3c(F)cccc32)nc1C (stereo not given),IC50,[4],0.00292 µM
same,Ki,[9],1.7 µM
same,IC50,[10],0.04 µM
CCn1cc(C2(c3cccc(-c4cncc(C#N)c4)c3)N=C(N)c3c(F)cccc32)cc(C)c1=O (stereo not given),IC50,[4],0.00184 µM
same,IC50,[5],0.00826 µM
